Key:
KRAS G12C protein = target: T1, KRAS G12C protein (Homo sapiens, UniProt P01116, G12C); experiment: ERK protein phosphorylation assay (p-ERK) in H358 cells; type: cell-based; parameters: scale not given here; conditions: H358 cells expressing KRAS G12C protein, 3 h incubation with compound; read-out: IC50, inhibiting phosphorylation of KRAS G12C protein-mediated downstream signaling (p-ERK)
T1 construct: H358 cells (ATCC, CRL-5807) expressing KRAS G12C protein; host or cells: H358 (NCI-H358) cells
Summary of the method: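 After paraformaldehyde fixation and methanol permeabilization, phospho-ERK detected by immunofluorescence read on an Odyssey CLx imager.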

[1] = tested on: H358 cell line (K-RAS G12C); experiment: cells; type: cell-based, human; conditions: for IC50: Homo sapiens, NCI-H358, 96 h, 3D culture, CellTiter-Glo 3D, read on day 4, read-out: H358 (K-RAS G12C) IC50; for Selectivity (fold number of mutant vs. wild type): PC-9 IC50 vs. H358 IC50
Description: a) On day 1, seed cells were placed in T75 a flask. b) On day 3, the medium was taken out and washed once with DPBS. c) Cells were trypsinized with 2 mL TrypLE™ Express enzyme at room temperature (RT) or 37° C. until cells detached. d) 5 mL of fresh medium was added to suspend the cells, and then the suspension was centrifuged at 1000 rpm and room temperature for 5 min. e) The supernatant was discarded, and the cells were resuspended in 5 mL of fresh medium and counted using Countess™ H. f) The cells were seeded back into the T75 flask for further culture or placed into an assay plate for 3D cell proliferation assay.
The cells were seeded at a density of 600 cells/well in a 384-well plate with 40 μL of medium per well and a final DMSO concentration of 0.5%. b) On day 4, a 3D CTG reagent was added to each well, followed by shaking at room temperature for 1 h. c) The signals were recorded using Envision.
a) Robustness was examined using 0.5% DMSO and data of blank control medium: H=mean (DMSO); L=mean (medium); SD (H)=STDEV (DMSO); SD (L)=STDEV (medium);
Y=peak valley value+(peak top value−peak valley value)/(1+10^((Log IC50−X)×HillSlope));
X: logarithm of compound concentration; Y: percent inhibition (% inhibition); Peak top and peak valley values: the plateau period units are the same as Y; log IC50: the same logarithmic unit as X; HillSlope: slope coefficient or Hill slope.

in vitro = conditions: human, Caco-2, pH 7.4
Description: Drug penetration test: the Transwell culture plate was retrieved from the incubator. […] All samples were prepared in double parallel. The integrity of the cell monolayer membrane after 2 hours of incubation was assessed using leakage of fluorescein; fluorescein stock solution was diluted with HBSS (25 mM HEPES, pH 7.4) to a final concentration of 100 μM. 100 μL of fluorescein solution was added to each well of the upper Transwell plate and 300 μL of HBSS (25 mM HEPES, pH 7.4) was added to each well of the lower receiving plate; after incubation at 37° C. for 30 min, 80 μL of the solution was pipetted from the upper and lower layers of each well to a new 96-well plate.
The apparent permeability coefficients (Papp, unit: cm/s) of the compounds in Caco-2 cells were calculated from the specific concentrations at the acceptor and donor ends, and the specific calculation formula is as follows: […]
where VA represents the volume of the acceptor end solution (0.3 mL for Ap→Bl, 0.1 mL for Bl→Ap); Area represents the area of the Transwell-96 well plate (0.143 cm^2); time represents the incubation time (unit: s); [drug]acceptor represents the drug concentration (ratio of peak area to internal standard area) at the acceptor end; [drug]initial, donor represents the drug concentration at the donor end (ratio of peak area to internal standard area).
The efflux ratio was calculated as follows: […]
where Papp (B-A) represents the apparent permeability coefficient from base end to top end; Papp (A-B) represents the apparent permeability coefficient from top end to base end.

T1 sequence (P01116 1-188 isoform P01116-2 G12C): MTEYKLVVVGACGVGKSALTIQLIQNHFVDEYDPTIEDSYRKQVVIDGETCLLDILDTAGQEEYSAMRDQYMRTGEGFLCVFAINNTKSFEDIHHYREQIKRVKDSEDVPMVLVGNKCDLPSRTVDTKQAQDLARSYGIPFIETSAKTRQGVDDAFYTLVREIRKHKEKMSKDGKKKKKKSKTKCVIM

SMILES | IC50 (KRAS G12C protein) | IC50 [1] | Selectivity (fold number of mutant vs. wild type) [1] | Papp A→B at 2 h, 10 μM (in vitro) | Papp B→A at 2 h, 10 μM (in vitro) | efflux ratio at 2 h, 10 μM (in vitro)
[2H]C([2H])([2H])c1cccc2cccc(N3CCc4c(nc(OC[C@@H]5CCCN5C)nc4N4CCN(C(=O)C=C)[C@@H](CC#N)C4)C3)c12 [Compound 1, 2-((S)-1-acryloyl-4-(7-(8-(methyl-d3)naphthalen-1-yl)-2-(((S)-1-methylpyrrolidin-2-yl)methoxy)-5,6,7,8-tetrahydropyrido[3,4-d]pyrimidin-4-yl)piperazin-2-yl)acetonitrile] | < 1000 nM | 0.55 nM | 8745 fold | 0.63 ×10⁻⁶ cm/s | 5.5 ×10⁻⁶ cm/s | 8.7
[2H]C([2H])([2H])N1CCC[C@H]1COc1nc2c(c(N3CCN(C(=O)C=C)[C@@H](CC#N)C3)n1)CCN(c1cccc3cccc(C)c13)C2 [Compound 42, 2-((S)-1-acryloyl-4-(7-(8-methylnaphthalen-1-yl)-2-(((S)-1-(methyl-d3)pyrrolidin-2-yl)methoxy)-5,6,7,8-tetrahydropyrido[3,4-d]pyrimidin-4-yl)piperazin-2-yl)acetonitrile] | < 1000 nM | 0.62 nM | 3823 fold | – | – | –

— patent publication US20230257374A1, “NOVEL KRAS G12C PROTEIN INHIBITOR, PREPARATION METHOD THEREFOR, AND USE THEREOF” (INNOVENT BIOLOGICS (SUZHOU) CO., LTD., priority 2019, published 2023)
